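Cultured in 96-well plates, cells were exposed to test compound for 48 hours across five concentrations. GI50 = concentration required for 50% inhibition of growth. TGI is the concentration that stops growth completely.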
Assays:
Assay in all cases: NCI anticancer screen, dose series, 48 h
DLD-1 colon = system: DLD-1 colon
DMS 273 small cell lung = system: DMS 273 small cell lung
M19-MEL melanoma = system: M19-MEL melanoma
XF 498 CNS = system: XF 498 CNS
SNB-78 CNS = system: SNB-78 CNS
BT-549 breast = system: BT-549 breast
HS 578T breast = system: HS 578T breast
MDA-MB-435 = system: MDA-MB-435
PC-3 prostate = system: PC-3 prostate
T-47D breast = system: T-47D breast

Row | Structure (SMILES) | TGI (DLD-1 colon) | TGI (DMS 273 small cell lung) | TGI (M19-MEL melanoma) | TGI (XF 498 CNS) | TGI (SNB-78 CNS) | other results
1 | COc1ccc2nc(-c3cccs3)cc(C(O)CN3CCSCC3)c2c1 (stereo not drawn) | > 100 µM | 40 µM | 58.6 µM | 32.1 µM | – | –
2 | COc1cc(C(=O)C/C(CCCC(=O)Nc2ccccc2[N+](=O)[O-])=N/NC(=O)c2cc3ccccc3cc2O)ccc1O | > 95 µM | 43.6 µM | – | > 100 µM | > 100 µM | –
3 | CC1=C(C)C(=O)c2c(cc3ccccn23)C1=O | – | 32.2 µM | 4.42 µM | – | 77.5 µM | –
4 | CC1=C(Oc2ccccc2)C(CCC(=O)O)c2c(O)cc(Cl)c(O)c21 (stereo not drawn) | > 100 µM | > 100 µM | > 100 µM | > 100 µM | > 100 µM | –
5 | Cc1ccc(NC(=O)C(=O)C(C#N)c2ccccc2C)cc1C (stereo not drawn) | > 100 µM | > 100 µM | – | > 100 µM | > 100 µM | –
6 | CC1(C)C(=NNC(=O)C[N+](C)(C)C)C(C)(C)C1=NNC(=O)C[N+](C)(C)C | > 100 µM | > 100 µM | > 100 µM | > 100 µM | > 100 µM | –
7 | CSc1ccc(C2OC(=O)c3ccccc32)c2ccccc12 (stereo not drawn) | > 100 µM | – | > 100 µM | > 100 µM | > 100 µM | –
8 | CCN(CC)c1ccc(C(=O)c2ccccc2C(=O)O)c(O)c1 | – | > 100 µM | > 100 µM | > 100 µM | > 100 µM | –
9 | CCCCCCCCCCCC(=O)OCC1OC(n2cc(F)c(=O)[nH]c2=O)C(NC(=O)OCc2ccccc2)C(OC(=O)CCCCCCCCCCC)C1O (stereo not drawn) | > 100 µM | > 100 µM | > 100 µM | > 100 µM | > 100 µM | –
10 | O=[N+]([O-])C1C2C=CC(C2)[C@H]1c1ccco1 (stereo partly drawn) | > 100 µM | > 100 µM | > 100 µM | > 100 µM | > 100 µM | –
11 | C#CCOCn1cnc2c(Cl)ncnc21 | > 100 µM | > 100 µM | > 100 µM | > 100 µM | > 100 µM | –
12 | Cc1ccc(N=Cc2ccc3c(c2)OCO3)cc1C | > 100 µM | > 100 µM | > 100 µM | > 100 µM | > 100 µM | –
13 | C1C[OH+]CC[OH+]CCNCC[OH+]CC[OH+]CCN1.N.[Cl-].[Pt+4] | > 100 µM | 15.7 µM | – | – | 63.3 µM | GI50 (DLD-1 colon): 20.2 µM; GI50 (DMS 273 small cell lung): 2.87 µM; GI50 (SNB-78 CNS): 4.15 µM
14 | O=C1[C@H]2ON(c3ccccc3)C(c3ccccc3Cl)[C@H]2C(=O)N1c1ccc(Cc2ccc(N3C(=O)[C@@H]4ON(c5ccccc5)C(c5ccccc5Cl)[C@@H]4C3=O)cc2)cc1 (stereo partly drawn) | > 100 µM | > 100 µM | > 100 µM | – | > 100 µM | –
15 | CCCC(=O)OC1C(C(O)CO)OC2OC(C)(C)OC21 (stereo not drawn) | > 100 µM | > 100 µM | > 100 µM | > 100 µM | > 100 µM | TGI (BT-549 breast): > 100 µM; TGI (HS 578T breast): > 100 µM; TGI (MDA-MB-435): > 100 µM; TGI (PC-3 prostate): > 100 µM; TGI (T-47D breast): > 100 µM
16 | O=C(NCCCCCCNC(=O)n1cc(F)c(=O)[nH]c1=O)NCCCOCCOCCOCCOCCOCCOCCOCCOCCOCCOCCOCCOCCOCCOCCOCCOCCOCCOCCOCCOCCOCCCNC(=O)C(O)C(O)C(O)C(O)CO (stereo not drawn) | > 100 µM | > 100 µM | > 100 µM | > 100 µM | > 100 µM | TGI (BT-549 breast): > 100 µM; TGI (HS 578T breast): > 100 µM; TGI (MDA-MB-435): > 100 µM; TGI (PC-3 prostate): > 100 µM; TGI (T-47D breast): > 100 µM

Row | Structure (SMILES) | TGI (DLD-1 colon) | TGI (DMS 273 small cell lung) | TGI (M19-MEL melanoma) | TGI (XF 498 CNS) | TGI (SNB-78 CNS) | other results
17 | Nc1ccn(CCNCCn2cnc3nc(N)[nH]c(=O)c32)c(=O)n1 | > 100 µM | – | – | > 100 µM | > 100 µM | –
18 | Cc1[nH]ccc2c1[nH]c1cc(=O)ccc12 | > 100 µM | > 100 µM | > 100 µM | > 100 µM | > 100 µM | –
19 | Nn1c(NNC(=O)C(=O)Nc2cc(Cl)c(Cl)cc2Cl)n[nH]c1=S | > 100 µM | – | > 100 µM | > 100 µM | > 100 µM | –
20 | COc1ccc(C2=Nc3ccccc3NC(=O)C2)cc1 | > 100 µM | > 100 µM | > 100 µM | 36.8 µM | 70 µM | –
21 | CCCNC1=C(C(=O)OCC)C(=O)CO1 | > 100 µM | > 100 µM | > 100 µM | > 100 µM | > 100 µM | –
22 | O=C(N/C(=C\c1ccc2c(c1)OCO2)c1nc2ccccc2[nH]1)c1ccccc1 | > 100 µM | > 100 µM | 19.8 µM | 34 µM | > 95.9 µM | –
23 | CC1=Nc2ccccc2S/C1=C(/C)NNC(=O)C(N)=O | > 100 µM | > 100 µM | > 100 µM | > 100 µM | > 100 µM | –
24 | CCc1ccccc1NC(=O)C(=O)CC(=O)c1sc(Nc2ccccc2)nc1C | > 100 µM | > 100 µM | > 100 µM | > 100 µM | > 100 µM | –
25 | Cc1cc(N(CCC#N)CCC#N)ccc1N=Nc1cccc(C(=O)O)c1 | > 100 µM | > 100 µM | > 100 µM | > 100 µM | > 100 µM | –
26 | CCOC(=O)COc1ccccc1/C=C1\CCC(CN(C)C)C1=O (stereo not drawn) | 12.2 µM | 8.17 µM | 8.98 µM | – | 62.6 µM | –
27 | N#C/C(=C\c1ccc(O)c(O)c1)C(N)=S | > 100 µM | > 100 µM | > 100 µM | > 100 µM | > 100 µM | –
28 | CC1C=C(OC(=O)c2ccccc2)C(=O)C(n2cc(F)c(=O)[nH]c2=O)O1 (stereo not drawn) | > 100 µM | > 100 µM | > 100 µM | > 100 µM | > 100 µM | –
29 | C=CCC[CH2][Sn]([c]1ccccc1)([c]1ccccc1)[c]1ccccc1 | 2.98 µM | 3.03 µM | 4.49 µM | 3.55 µM | 4.83 µM | GI50 (DLD-1 colon): 1.51 µM; GI50 (DMS 273 small cell lung): 1.58 µM; GI50 (M19-MEL melanoma): 2.17 µM; GI50 (SNB-78 CNS): 1.73 µM; GI50 (XF 498 CNS): 2.08 µM
30 | O=C(CN1CCOCC1)Nc1nc(-c2ccc(Cl)cc2)cs1 | > 100 µM | 41.8 µM | > 100 µM | 26.9 µM | > 100 µM | –
31 | Cc1c(C(=O)C/C(=N\O)C(=O)Nc2cc(Cl)c(Cl)cc2Cl)[n+](=O)c2ccccc2n1[O-] | 81.8 µM | 38 µM | 5.1 µM | 46.8 µM | > 100 µM | –
32 | CC1SC2=NC3=C(c4ccccc4C3=O)C(c3ccc(F)cc3)N2C1=O (stereo not drawn) | > 100 µM | > 100 µM | > 100 µM | > 100 µM | – | –

Source: PubChem BioAssay (NCI)
